These results are taken from patent EP1255553B1 (Stegram Pharmaceuticals Limited, priority 2000, dated 2001).

“Also recorded” adds a separate entry of the source. Where two headings read alike, the source gives them in different places.

In experiment [1] the test system is oestrogen receptor isoforms. Kind of experiment: Isoelectric focusing (IEF) of 3H oestradiol binding to oestrogen receptor isoforms in tissue cytosol. Also on record: species or system rat. The settings on record: Trilostane 10 micromolar, 3H oestradiol 5nM.
The subject of experiment [2] is rat uterine oestrogen receptors. Description: Scatchard analysis of tritiated oestradiol binding, rat uterus. The settings on record: Figure 2, Trilostane at 10micromolar. The procedure: (§1) Using tissue, snap frozen at time of excision, cytosols were prepared by dismembration using a Braun II Mikrodismembrator. Frozen tissue was minced and pulverised. The resultant powder was resuspended in 1-mm phosphate buffer containing 10% (v/v) glycerol, 1.5mm EDTA, 10mM monothioglycerol, 20mM Sodium molybdate, aprotinin (1ug/ml) and STI (1ug/ml) and phenyl methyl sulfonyl fluoride (30ug/ml) at pH 7.4 by stirring for 15 minutes at 4°C. This suspension was centrifuged at 100,000g for 1 hour at 4°C and the supernantant was used for competition analysis.
(§2) After overnight incubation at 4°C assay tubes were incubated with DCC as above to remove free steroid and aliquots of the resultant supernatant were incubated with toluene based scintillant and counted on a Scintillation Counter. Data obtained was analysed according to the method of Scatchard.

Experiment [3] relates to rat prostate oestrogen receptors. Kind of experiment: Scatchard analysis of tritiated oestradiol binding, rat prostate. Also on record: dose or concentration left out as unconfirmed. The settings on record: Figure 3. How it is done:
as §1, §2

Experiment [4] relates to oestrogen receptor isoforms in rat uterus. Description: Tritiated tamoxifen binding to oestrogen receptor isoforms (IEF). As to conditions: Figure 5, test compound 10 micromolar, tritiated tamoxifen 10^-6M. How it is done:
as §1
After overnight incubation free steroid was separated from bound by incubating with dextran coated charcoal (0.25% w/v charcoal, 0.025% w/v Dextran T70 in 10mM Tris 1.5mM EDTA at pH 7.4) for 10 mins at 4°C. The DCC was pelleted by centrifugation (10,000g for 10 mins) and aliquots of the supernatant were used for IEF separation.
Isoelectric focusing (IEF) gels were cast in slabs of size 125 x 260 mm and separation was conducted along either the short side (short run) or the long side (long run) of the gel. […]
After DCC extraction, aliquots (270ul) of the radioactive supernatant (3 mg protein/ml) derived from SSD assay were loaded near the cathode. […] After the run the gels were cut into 2.5 mm slices and each slice was incubated with 5ml scintillation cocktail for 24h at room temperature and radioactivity assayed.

Experiment [5] relates to oestrogen response element driven GFP gene in MCF-7 breast cancer cell line. Kind of experiment: Oestrogen reporter plasmid xTG (GFP) transcriptional activity in MCF-7 cells. It counts as cell-based. As to conditions: compound at 10^-6M plus E2 at 10^-8M; MCF-7 transiently transfected with xTG for three days. The text has this:
XTG consists of a oestrogen response element. Upstream of a simple TATA promoter which together drive transcription of the GFP gene from the jellyfish Aequorea victoria. The xERE sequence is made up of the following - GGTCA CAG TGACC […] (SEQUENCE ID NO: 1)
The GFP gene - from GFPuv was supplied by Clontech (Clontech Laboratories, Inc., 1020 East Meadow Circle, Palo Alto, CA 94303-4230, USA)
E2 was used at a concentration of 10^-8M while all other compounds were used at 10^-6M. All ligands were added to cell media during transfection.

For another experiment, the system named is MCF-7 cells. Description: Thymidine labeling of MCF-7 cells. It counts as cell-based. How it is done:
MCF-7 cells were plated out in multiwell dishes and grown for 24 hours in serum free medium (MEM). […] Radiolabelled thymidine was added to each well ([…]) and cells were then cultured for a further 24 hours. At the end of this period the medium was aspirated and the cultured cells were rinsed 3-times with cold buffer solution(50mm Tris-HCl, pH 7.4). The cells were then dissolved in 1ml of 0.1N NaOH and 0.5ml of this solution was mixed with 2.5ml of Scintillation cocktail and the intracellular radioactivity of ^3H was measured with a liquid scintillation counter.

For experiment [6] the following is noted: advanced breast cancer, cited from earlier work.
Experiment [7] deals with oestrogen receptor present in MCF-7 breast cancer cell extracts / oestrogen response element (Homo sapiens, UniProt P03372). Description: Electrophoretic mobility shift assay (EMSA) of ER-ERE complex formation in extracts of treated MCF-7 cells. It counts as cell-based. As to conditions: MCF7, 24 h, read-out: ER-ERE complex formation.
For experiment [8] the following is noted: cited from earlier work.

A word on the inhibition: it is the share of the control response that was lost under treatment.

Chain of oestrogen receptor present in MCF-7 breast cancer cell extracts / oestrogen response element (P03372 whole entry): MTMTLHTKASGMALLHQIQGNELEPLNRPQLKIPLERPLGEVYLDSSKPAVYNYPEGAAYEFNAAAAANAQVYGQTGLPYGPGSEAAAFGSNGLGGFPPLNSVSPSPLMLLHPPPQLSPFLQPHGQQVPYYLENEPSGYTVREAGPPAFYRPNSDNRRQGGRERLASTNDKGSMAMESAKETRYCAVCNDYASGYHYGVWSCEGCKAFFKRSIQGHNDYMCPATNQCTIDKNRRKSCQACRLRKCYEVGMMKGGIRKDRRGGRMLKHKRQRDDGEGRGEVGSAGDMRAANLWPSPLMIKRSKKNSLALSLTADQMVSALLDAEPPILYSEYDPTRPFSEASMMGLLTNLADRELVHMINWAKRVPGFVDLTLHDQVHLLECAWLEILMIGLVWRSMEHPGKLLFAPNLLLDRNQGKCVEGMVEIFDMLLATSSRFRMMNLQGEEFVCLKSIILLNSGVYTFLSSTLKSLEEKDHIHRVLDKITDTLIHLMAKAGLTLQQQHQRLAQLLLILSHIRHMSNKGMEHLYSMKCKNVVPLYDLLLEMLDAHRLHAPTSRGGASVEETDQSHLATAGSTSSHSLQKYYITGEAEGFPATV

Take `C[C@]12CC[C@H]3[C@@H](CC[C@@]45O[C@@H]4C(O)=C(C#N)C[C@]35C)[C@@H]1CC[C@@H]2O` [Trilostane, (4α,5α-17β)-4,5-epoxy-3,17-dihydroxyandrost-2-ene-2carbonitrile]: the “binding of oestrogen onto the oestrogen receptor isoforms” value in experiment [1] was “modulated the binding of oestrogen onto all the oestrogen receptor isoforms but principally onto the pI 6.3 isoform”. For the same compound, the “concentration of total receptor (X axis intercept of Scatchard plot)” value in experiment [2] was “increases the apparent affinity of oestrogen binding (given by the slope of the regression lines) and the concentration of total receptor”. The “concentration of total receptor (x axis intercept of Scatchard plot)” value in [3] is given as “increases the concentration of total receptor; also recorded: an increase in receptor concentration”. For the same compound, the “tritiated tamoxifen binding to oestrogen receptor isoforms” value in experiment [4] is “increased tritiated tamoxifen binding to oestrogen receptor isoforms”. Moreover, in [5], the “E2-driven transactivation / transcription of GFP” value is recorded as “reduced transcription of GFP”. The “blocking of the oestradiol-induced increase in thymidine labeling” value in the experiment with MCF-7 cells (E2+T: Oestradiol 10^-8 M and Trilostane 10µM, 24 hours) is “completely blocked”. In the experiment with MCF-7 cells (Homo sapiens, MCF7, 24 h, read-out: inhibition of thymidine uptake of MCF-7 cells compared with control), the inhibition at 10 µM stood at 31%. For the same compound, the response rate in [6] (Ingle J.N. et al 1990) was 38%; in [6] (Williams C.J. et al 1993), 29%.
As to `C[C@]12CC[C@H]3[C@@H](CC[C@@]45O[C@@H]4C(=O)[C@H](C#N)C[C@]35C)[C@@H]1CCC2=O` [keto-trilostane], the “tritiated tamoxifen binding to oestrogen receptor isoforms” value in [4] is reported as “increased tritiated tamoxifen binding to oestrogen receptor isoforms”. In addition, the activity at 10 µM in [7] was found to be 68%.
Regarding `C[C@]12CC[C@@H]3c4ccc(O)cc4CC[C@H]3[C@@H]1CC[C@@H]2O` [oestradiol], in the experiment with MCF-7 cells (Homo sapiens, MCF7, 24 h, read-out: increase in thymidine labeling compared to control), the activation at 0.01 µM amounted to 15%.
`O=C(c1ccc(OCCN2CCCCC2)cc1)c1c(-c2ccc(O)cc2)sc2cc(O)ccc12` [raloxifene]: the “E2-driven transactivation / transcription of GFP” value in experiment [5] is on record as “reduced E2-driven transactivation”.
Turning to `CC/C(=C(\c1ccccc1)c1ccc(OCCN(C)C)cc1)c1ccccc1` [tamoxifen], the “E2-driven transactivation / transcription of GFP” value in experiment [5] was “reduced E2-driven transactivation”. Further, the “reduction of the risk of invasive breast cancer” value in experiment [8] (all women, two-sided P<.00001) is given as 49%. Further, the “occurrence of oestrogen receptor-negative tumors” value in [8] (in vivo) is listed as “no difference”. In addition, the “reduction of the occurrence of oestrogen receptor-positive tumors” value in experiment [8] (in vivo) is 69%. The “cumulative incidence of invasive breast cancer” value in [8] (through 69 months of follow-up, tamoxifen group) is recorded as 22.0 per 1000 women. In addition, the “reduction of the risk of noninvasive breast cancer” value in experiment [8] (two-sided P<.002) is recorded as 50%. Also, the “decreased risk of invasive breast cancer” value in [8] (women aged 49 years or younger) is 44%; in [8] (women aged 50-59 years), 51%; in experiment [8] (women aged 60 years or older), 55%; in experiment [8] (women with a history of atypical breast hyperplasia), 86%; in experiment [8] (women with a history of breast lobular carcinoma in situ), 56%.
